Target: T1, human TRPV1 receptor (Homo sapiens, UniProt Q8NER1)
T1 construct: expressed in transfected cells
Assay: Ca2+ influx assay (FLIPR, Fluo-4 AM) of capsaicin-evoked response in cells expressing recombinant TRPV1
Format: cell-based
Conditions: 1321N1 human astrocytoma cells expressing hTRPV1; inhibition of 0.05 μM capsaicin-induced [Ca2+]i increase
Description: Dulbecco's modified Eagle medium (D-MEM) (with 4.5 mg/mL glucose) and fetal bovine serum were obtained from Hyclone Laboratories, Inc. (Logan, Utah). Dulbecco's phosphate-buffered saline (D-PBS) (with 1 mg/mL glucose and 3.6 mg/l Na pyruvate, without phenol red), L-glutamine, hygromycin B, and Lipofectamine® were obtained from Life Technologies (Grand Island, N.Y.). G418 sulfate was obtained from Calbiochem-Novabiochem Corp. (San Diego, Calif.). Capsaicin (8-methyl-N-vanillyl-6-nonenamide) was obtained from Sigma-Aldrich, Co. (St. Louis, Mo.). Fluo-4 AM (N-[4-[6-[(acetyloxy)methoxy]-2,7-difluoro-3-oxo-3H-xanthen-9-yl]-2-[2-[2-[bis[2-[(acetyloxy)methoxy]-2-oxyethyl]amino]-5-methylphenoxy]ethoxy]phenyl]-N-[2-[(acetyloxy)methoxy]-2-oxyethyl]-glycine, (acetyloxy)methyl ester) was purchased from Molecular Probes (Eugene, Oreg.).
The cDNAs for the human TRPV1 receptor were isolated by reverse transcriptase-polymerase chain reaction (RT-PCR) from human small intestine poly A+RNA supplied by Clontech (Palo Alto, Calif.) using primers designed surrounding the initiation and termination codons identical to the published sequences (Hayes et al. Pain 2000, 88, 205-215). The resulting cDNA PCR products were subcloned into pCIneo mammalian expression vector (Promega) and fully sequenced using fluorescent dye-terminator reagents (Prism, Perkin-Elmer Applied Biosystems Division) and a Perkin-Elmer Applied Biosystems Model 373 DNA sequencer or Model 310 genetic analyzer. Expression plasmids encoding the hTRPV1 cDNA were transfected individually into 1321N1 human astrocytoma cells using Lipofectamine®. Forty-eight hours after transfection, the neomycin-resistant cells were selected with growth medium containing 800 μg/mL Geneticin (Gibco BRL). Surviving individual colonies were isolated and screened for TRPV1 receptor activity. Cells expressing recombinant homomeric TRPV1 receptors were maintained at 37° C. in D-MEM containing 4 mM L-glutamine, 300 μg/mL G418 (Cal-biochem) and 10% fetal bovine serum under a humidified 5% CO2 atmosphere.
The functional activity of compounds at the TRPV1 receptor was determined with a Ca^2+ influx assay and measurement of intracellular Ca^2+ levels ([Ca^2+]i). All compounds were tested over an 11-point half-log concentration range. Compound solutions were prepared in D-PBS (4× final concentration), and diluted serially across 96-well v-bottom tissue culture plates using a Biomek 2000 robotic automation workstation (Beckman-Coulter, Inc., Fullerton, Calif.). A 0.2 μM solution of the TRPV1 agonist capsaicin was also prepared in D-PBS. The fluorescent Ca^2+ chelating dye Fluo-4 AM was used as an indicator of the relative levels of [Ca^2+]i in a 96-well format using a Fluorescence Imaging Plate Reader (FLIPR) (Molecular Devices, Sunnyvale, Calif.). Cells were grown to confluency in 96-well black-walled tissue culture plates. Then, prior to the assay, the cells were loaded with 100 μL per well of Fluo-4 AM (2 μM, in D-PBS) for 1-2 hours at 23° C. Washing of the cells was performed to remove extracellular Fluo-4 AM (2×1 mL D-PBS per well), and afterward, the cells were placed in the reading chamber of the FLIPR instrument. 50 μL of the compound solutions were added to the cells at the 10 second time mark of the experimental run. Then, after a 3-minute time delay, 50 μL of the capsaicin solution was added at the, 190 second time mark (0.05 μM final concentration)(final volume=200 μL) to challenge the TRPV1 receptor. Time length of the experimental run was 240 seconds. Fluorescence readings were made at 1 to 5 second intervals over the course of the experimental run. The peak increase in relative fluorescence units (minus baseline) was calculated from the 190 second time mark to the end of the experimental run, and expressed as a percentage of the 0.05 μM capsaicin (control) response. […]

T1 sequence (Q8NER1 whole entry): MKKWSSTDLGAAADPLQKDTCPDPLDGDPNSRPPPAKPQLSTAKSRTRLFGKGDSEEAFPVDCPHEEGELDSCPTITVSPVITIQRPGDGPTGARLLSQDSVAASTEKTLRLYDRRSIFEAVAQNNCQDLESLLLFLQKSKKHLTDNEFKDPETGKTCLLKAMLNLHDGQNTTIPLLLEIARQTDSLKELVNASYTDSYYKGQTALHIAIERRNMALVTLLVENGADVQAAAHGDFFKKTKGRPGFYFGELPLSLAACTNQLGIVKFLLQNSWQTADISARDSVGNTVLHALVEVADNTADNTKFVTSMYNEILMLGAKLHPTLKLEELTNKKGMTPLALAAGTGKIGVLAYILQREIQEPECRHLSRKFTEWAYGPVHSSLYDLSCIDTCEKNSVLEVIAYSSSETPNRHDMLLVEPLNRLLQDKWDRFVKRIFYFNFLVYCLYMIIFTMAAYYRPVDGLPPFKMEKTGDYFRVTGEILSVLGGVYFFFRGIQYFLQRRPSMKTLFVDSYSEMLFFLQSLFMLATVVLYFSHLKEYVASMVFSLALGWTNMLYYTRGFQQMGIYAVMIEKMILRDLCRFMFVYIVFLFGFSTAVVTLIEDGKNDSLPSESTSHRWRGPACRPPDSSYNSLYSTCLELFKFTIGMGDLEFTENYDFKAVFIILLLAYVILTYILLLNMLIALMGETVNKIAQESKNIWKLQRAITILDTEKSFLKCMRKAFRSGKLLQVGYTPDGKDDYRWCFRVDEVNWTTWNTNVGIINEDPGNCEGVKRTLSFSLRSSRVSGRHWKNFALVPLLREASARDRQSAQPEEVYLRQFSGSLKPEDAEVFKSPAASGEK

For Cc1cccnc1N1CC=C(C(=O)Nc2ccc(C(F)(F)F)cc2)[C@@H](C)C1 (single isomer, unassigned) [Example 9], which IC50 is on record?
The IC50 was 380 nM.

Which IC50 does the source give for C[C@H]1CN(c2ncccc2C(F)(F)F)CC=C1C(=O)Nc1ccc(C(F)(F)F)cc1 (single isomer, unassigned) [Example 10] here?
Its IC50 is 480 nM.

With C[C@@H]1CN(c2ncccc2C(F)(F)F)CC=C1C(=O)Nc1ccc(S(=O)(=O)C(F)(F)F)cc1 (single isomer, unassigned) [Example 11] as the compound, how does the IC50 read?
The IC50 was 40 nM.

Which IC50 does the source give for C[C@H]1CN(c2ncccc2C(F)(F)F)CC=C1C(=O)Nc1ccc(S(=O)(=O)C(F)(F)F)cc1 (single isomer, unassigned) [Example 12] here?
Its IC50 is 640 nM.

With C[C@@H]1CN(c2ncccc2C(F)(F)F)CC=C1C(=O)Nc1ccc(C(C)(C)C#N)cc1 (single isomer, unassigned) [Example 13] as the compound, how does the IC50 read?
The IC50 was 89 nM.

Which IC50 does the source give for C[C@H]1CN(c2ncccc2C(F)(F)F)CC=C1C(=O)Nc1ccc(C(C)(C)C#N)cc1 (single isomer, unassigned) [Example 14] here?
Its IC50 is 710 nM.

How did the IC50 turn out when Cc1cccnc1N1CC=C(C(=O)Nc2ccc(C(C)(C)C)cc2)[C@H](C)C1 (single isomer, unassigned) [Example 15] was run?
The IC50 was 15 nM.

How did the IC50 turn out when Cc1cccnc1N1CC=C(C(=O)Nc2ccc(C(C)(C)C)cc2)[C@@H](C)C1 (single isomer, unassigned) [Example 16] was run?
The IC50 was 620 nM.

For Cc1cccnc1N1CC=C(C(=O)Nc2ccc(C(C)(C)C#N)cc2)[C@H](C)C1 (single isomer, unassigned) [Example 17], which IC50 is on record?
The IC50 was 13 nM.

Cc1cccnc1N1CC=C(C(=O)Nc2ccc(C(F)(F)F)nc2)[C@H](C)C1 (single isomer, unassigned) [Example 19] was tested. Which IC50 did it give?
The IC50 was 190 nM.

How did the IC50 turn out when Cc1cccnc1N1CC=C(C(=O)Nc2ccc(C(F)(F)F)nc2)[C@@H](C)C1 (single isomer, unassigned) [Example 20] was run?
Its IC50 is 3100 nM.

Which IC50 does the source give for C[C@@H]1CN(c2ncccc2Cl)CC=C1C(=O)Nc1ccc(S(=O)(=O)C(F)(F)F)cc1 [Example 1, (3S)-3′-chloro-3-methyl-N-{4-[(trifluoromethyl)sulfonyl]phenyl}-3,6-dihydro-2H-1,2′-bipyridine-4-carboxamide] here?
The IC50 was 28 nM.

With C[C@@H]1CN(c2ncccc2Cl)CC=C1C(=O)Nc1ccc(C(F)(F)F)cc1 [Example 2, (3S)-3′-chloro-3-methyl-N-[4-(trifluoromethyl)phenyl]-3,6-dihydro-2H-1,2′-bipyridine-4-carboxamide] as the compound, how does the IC50 read?
Its IC50 is 20 nM.

Which IC50 does the source give for Cc1cccnc1N1CC=C(C(=O)Nc2ccc(S(=O)(=O)C(F)(F)F)cc2)[C@H](C)C1 [Example 3, (3S)-3,3′-dimethyl-N-{4-[(trifluoromethyl)sulfonyl]phenyl}-3,6-dihydro-2H-1,2′-bipyridine-4-carboxamide] here?
The IC50 was 20 nM.

With C[C@@H]1CN(c2ncccc2C(F)(F)F)CC=C1C(=O)Nc1ccc(C(F)(F)F)cc1 [Example 4, (3S)-3-methyl-3′-(trifluoromethyl)-N-[4-(trifluoromethyl)phenyl]-3,6-dihydro-2H-1,2′-bipyridine-4-carboxamide] as the compound, how does the IC50 read?
The IC50 was 26 nM.

With C[C@H]1CN(c2ncccc2Cl)CC=C1C(=O)Nc1ccc(S(=O)(=O)C(F)(F)F)cc1 [Example 5, (3R)-3′-chloro-3-methyl-N-{4-[(trifluoromethyl)sulfonyl]phenyl}-3,6-dihydro-2H-1,2′-bipyridine-4-carboxamide] as the compound, how does the IC50 read?
Its IC50 is 230 nM.

Cc1cccnc1N1CC=C(C(=O)Nc2ccc(S(=O)(=O)C(F)(F)F)cc2)[C@@H](C)C1 [Example 6, (3R)-3,3′-dimethyl-N-{4-[(trifluoromethyl)sulfonyl]phenyl}-3,6-dihydro-2H-1,2′-bipyridine-4-carboxamide] was tested. Which IC50 did it give?
Its IC50 is 760 nM.

How did the IC50 turn out when C[C@H]1CN(c2ncccc2Cl)CC=C1C(=O)Nc1ccc(C(F)(F)F)cc1 [Example 7, (3R)-3′-chloro-3-methyl-N-[4-(trifluoromethyl)phenyl]-3,6-dihydro-2H-1,2′-bipyridine-4-carboxamide] was run?
Its IC50 is 84 nM.

Which IC50 does the source give for Cc1cccnc1N1CC=C(C(=O)Nc2ccc(C(F)(F)F)cc2)[C@H](C)C1 [Example 8, (3S)-3,3′-dimethyl-N-[4-(trifluoromethyl)phenyl]-3,6-dihydro-2H-1,2′-bipyridine-4-carboxamide] here?
The IC50 was 63 nM.

How did the IC50 turn out when Cc1cccnc1N1CC=C(C(=O)Nc2ccc(C(C)(C)C#N)cc2)[C@@H](C)C1 [Example 18, (3R)—N-(4-(2-cyanopropan-2-yl)phenyl)-3-methyl-1-(3-methylpyridin-2-yl)-1,2,3,6-tetrahydropyridine-4-carboxamide] was run?
The IC50 was 1300 nM.

Source: patent US7998982B2, “Amide derivatives as TRPV1 antagonists” (Abbott Laboratories, priority 2007, dated 2011)
